# Measurements taken from paper PMC12828229, “Aspergillus fumigatus PolX1 is an early ancestor of vertebrate terminal deoxynucleotidyl transferases” (Nucleic Acids Research, 2026).
# Molecular target: T1, AfPolX1 (Aspergillus fumigatus, UniProt Q4X1T5)
# T1 construct: gene AFUA_2G08840; catalytic core (8 kDa, fingers, palm, thumb), residues 297-704 in methods, 298-704 in results; codon-optimised in pET28a(+), E. coli Rosetta 2 (DE3); N-terminal His6 tag cut off with TEV protease
# T1 sequence (Q4X1T5 297-704): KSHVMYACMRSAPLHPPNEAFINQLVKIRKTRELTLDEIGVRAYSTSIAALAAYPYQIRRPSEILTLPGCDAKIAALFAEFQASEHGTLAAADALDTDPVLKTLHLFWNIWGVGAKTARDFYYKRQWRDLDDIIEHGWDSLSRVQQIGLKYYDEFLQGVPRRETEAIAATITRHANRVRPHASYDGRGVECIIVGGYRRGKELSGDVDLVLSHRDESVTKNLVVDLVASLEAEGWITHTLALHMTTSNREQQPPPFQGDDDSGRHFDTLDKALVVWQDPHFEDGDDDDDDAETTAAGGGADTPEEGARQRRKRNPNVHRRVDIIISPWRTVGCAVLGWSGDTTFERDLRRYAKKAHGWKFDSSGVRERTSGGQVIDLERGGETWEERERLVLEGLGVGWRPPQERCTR
# Assay: single-turnover gap-filling primer extension, denaturing gel
# Format: biochemical
# Settings: 1-nt gapped 5'-phosphate DNA (D1) templating dT, 150 nM; 4 uM enzyme; 1 mM dATP; 10 mM Mg acetate; pH 7.5; 37 °C
compound,measurement,value
Nc1ncnc2c1ncn2[C@H]1C[C@H](O)[C@@H](COP(=O)(O)OP(=O)(O)OP(=O)(O)O)O1 [dATP],kobs,Correct nucleotide incorporation proceeded at comparable rates for all the substrates
